Data on 1 compound can be found in patent US10645929B2, “Pyrimidine compound” (Sumitomo Chemical Company, Limited, priority 2015, dated 2020).

Each structure is given as a SMILES string.

The data set has as its system cucurbit leaf beetle (Aulacophora femoralis). Kind of data set: Test Example 10: sprayed cucumber leaves, cucurbit leaf beetle. The data set is classed as in vivo. The note with it: 50 ppm, spray 10 mL/seedling, 2nd instar larvae, after 5 days. The method, then:
Next, Test examples are used to show efficacies of the Present compounds on controlling harmful arthropods. In the following Test examples, the tests were carried out at 25° C.
Each test compound is dissolved into a mixed solution (10 μL) of xylene, DMF, and a surfactant (at a volume ratio of xylene:DMF:surfactant=4:4:1) per 1 mg of the test compound, and water containing a spreader (0.03% by volume) is added thereto to prepare a diluted solution containing a prescribed concentration of each test compound.
Cucumber seedlings (on the developmental stage of the second to third true leaf) are planted in a plastic cup, and each of the diluted solutions is sprayed into the seedlings in the ratio of 10 mL/seedling. Thereafter, the second leaves are cut out and placed into a plastic cup, and 10 heads of the 2nd instar larvae of cucurbit leaf beetle (Aulacophora femoralis) are released into the cup, and the cup is covered with a lid. After 5 days, the number of the dead insects is counted, and the mortality of insects is calculated by the following equation. Mortality (%)=(Number of dead insects/10)×100

In general, mortality refers to the percentage killed. On to `CCS(=O)(=O)c1cc(C(F)(F)F)ccc1-c1ncc(OCC(F)(F)C(F)C(F)(F)F)cn1` (racemic) [compound 2], for which the mortality is at least 80%.
